According to PubChem BioAssay AID1996:
≈ marks a conversion by molar mass, not a printed value.

Settings: buffer; pH 7.4; 200.0 µM

| SMILES | solubility kinetic [µg/mL] |
| --- | --- |
| Cc1ccc(C(=O)O/N=C(\N)Cc2ccc([N+](=O)[O-])cc2)c(Cl)c1 | 3.9 (≈ 11.2 µM) |
| OCCN(CC#CCn1c2ccccc2c2ccccc21)CCO | > 48.4 |
| CC(=O)N(c1cccc(C)c1)S(=O)(=O)c1ccc(Cl)cc1 | 32.7 (≈ 101 µM) |
| O=C1CSC(c2ccccc2)N1CCc1ccccc1 (stereo unspecified) | 29.6 (≈ 104 µM) |
| O=C(CN1CCCC1)NC(=O)NC1CCCC1 | > 35.9 |
| CN(C(=O)COc1ncnc2sccc12)C1CCCCC1 | > 45.8 |
| O=C(NCCCn1ccnc1)c1ccc2ccccc2c1 | 34.8 (≈ 125 µM) |
| CCOc1ccc(C2NC(=O)c3ccccc3O2)cc1OCC (stereo unspecified) | 13.8 (≈ 44 µM) |
| Cn1c(N)c(C(=O)COC(=O)CNC(=O)c2ccccc2F)c(=O)n(C)c1=O | > 58.9 |
| COc1ccc(OC)c(NC(=O)c2ccc3c(c2)OCO3)c1 | 4.7 (≈ 15.6 µM) |
| O=C(Nc1ccc(Cl)cc1)C1CCN(C(=O)c2cccs2)CC1 | 12.9 (≈ 37 µM) |
| COC(=O)c1ccc(COc2ncnc3sccc23)cc1 | 17 (≈ 56.6 µM) |
| Cc1cc(C)cc(N2CC(O)Cn3c2nc2c3c(=O)[nH]c(=O)n2C)c1 (stereo unspecified) | 34.3 (≈ 100 µM) |
| CC(=O)Nc1ccc(CC#N)cc1 | > 26.1 |
| Cc1ccc2c(CN3CCCCC3C)cc(=O)oc2c1.Cl (stereo unspecified) | 35.6 |
| CCCn1c(=N)n(CC(O)c2ccc(C)cc2)c2ccccc21.Cl (stereo unspecified) | > 51.9 |
| CC(NC(=O)CN(C)CC(=O)Nc1ccc(Cl)cc1)c1ccc(F)cc1 (stereo unspecified) | > 56.7 |
| CCOC(=O)N1CCN(C(=O)c2cc3ccccc3o2)CC1 | > 45.3 |
| Cc1ccccc1C(=O)N1CCC(C(=O)Nc2nccs2)CC1 | 46.7 (≈ 142 µM) |
| Cc1csc2c(=O)sc(NC(=O)c3cccs3)nc12 | 0.6 (≈ 1.95 µM) |
| CC1(C)CC2CC(C)(CN2/C=C2/CCCCC2=O)C1 (stereo unspecified) | 22.6 (≈ 86.5 µM) |
| COCc1cc(C)nc(Nc2ccccc2OC)c1C#N | 0.3 (≈ 1.06 µM) |
| N#CC1CCCc2c1[nH]c1ccc([N+](=O)[O-])cc21 (stereo unspecified) | 20.8 (≈ 86.2 µM) |
| COc1cc(OC)c(NC(=O)N2CCOCC2)cc1Cl | > 45.1 |
| O=C(NC1CCN(Cc2ccccc2)CC1)c1ccc2c(c1)OCCCO2 | 51.6 (≈ 141 µM) |
| Cc1ccsc1C(=O)OCC(=O)NCCCc1ccccc1 | 6.2 (≈ 19.5 µM) |

| SMILES | solubility kinetic [µg/mL] |
| --- | --- |
| Cc1sc2ncnc(SCc3ccc(C(=O)O)cc3)c2c1C | > 49.6 |
| Clc1cccc(Cl)c1-c1noc(CN2CCOCC2)n1 | 31.8 (≈ 101 µM) |
| CCN(CC)S(=O)(=O)c1ccc(NC(=S)NC(=O)C2CCC2)cc1 | 18.7 (≈ 50.6 µM) |
| O=C(OCc1nc2ccccc2s1)c1ccco1 | 35.4 (≈ 137 µM) |
| Cc1cccc(OCC(=O)NCCNC(=O)c2ccccn2)c1 | > 47 |
| NS(=O)(=O)c1cccc(NC(=O)COC(=O)CCC2CCCC2)c1 | > 53.2 |
| Cc1ccccc1Cn1c(C)cc(C)c(C#N)c1=O | 8.1 (≈ 32.1 µM) |
| O=C(Nc1nc2ccccc2n1CCN1CCOCC1)c1ccccc1 | 51.4 (≈ 147 µM) |
| CCN(CC)C(=O)c1ccc(NC(=O)c2c(C)noc2C)cc1 | > 47.3 |
| Cc1ccc(S(=O)(=O)N2CCC(C(=O)NCC3CC3)CC2)cc1 | 31.7 (≈ 94.2 µM) |
| O=C(COC(=O)c1ccccc1O)NCCCc1ccccc1 | 5 (≈ 16 µM) |
| Cc1cc(Br)c(NC(=O)COC(=O)c2ccc[n+]([O-])c2)c(Br)c1 | > 66.6 |
| CCOc1ccccc1NC(=O)c1ccc2ccccc2c1 | < 0.6 |
| Cc1ccc(C(=O)NC2=NCCS2)cc1 | 32.9 (≈ 149 µM) |
| CC(=O)C(Cc1ccc(Cl)nc1)Cc1ccc(Cl)nc1 | 44.9 (≈ 145 µM) |
| CNC(=O)O/N=C(\N)Cc1csc2ccccc12 | 39.2 (≈ 149 µM) |
| CC(=O)/C(C#N)=C1\NC(=O)C(Cc2ccccc2C)S1 (stereo unspecified) | > 43 |
| CN1CCOC(c2ccccc2)c2ccccc2C1.Cl (stereo unspecified) | > 43.5 |
| NC(=O)c1coc(-c2ccccc2)n1 | > 28.2 |
| O=C(NC(=O)N1CCCCCC1)c1ccc(Cl)cc1 | > 42.1 |
| Cc1nc2cc(NC(=O)c3ccco3)ccc2n1C | 38.2 (≈ 150 µM) |
| CC1CCCC(NC(=O)CCC(=O)c2ccc(F)cc2)C1C (stereo unspecified) | 33.8 (≈ 111 µM) |
| CC1CCN(C(=O)c2ccc(N3C(=O)c4ccccc4C3=O)cc2)CC1 | 33.5 (≈ 96.2 µM) |
| CCCNC(=O)NC(=O)CSc1cccc(C(F)(F)F)c1 | 12.9 (≈ 40.3 µM) |
| Cc1ccsc1C(=O)NCc1ccccc1Cl | > 39.9 |
| Cc1cccc(C)c1NC(=O)Cn1c(=O)c(N2CCCCC2)c(N)n(C)c1=O | > 57.8 |

| SMILES | solubility kinetic [µg/mL] |
| --- | --- |
| CC1CN(c2ccc([N+](=O)[O-])c(N3CCCCC3)c2)CCN1 (stereo unspecified) | 42.4 (≈ 139 µM) |
| Cc1nc2ccc(Cl)cc2nc1C | 9.4 (≈ 48.8 µM) |
| O=C(NCCNC(=O)c1cccc(O)c1)c1cccc(O)c1 | > 45 |
| CCN(CC)C(=O)c1sc(NC(=O)C(C)C)c(C#N)c1C | > 46.1 |
| COC(=O)Cn1c2ccc(OC)cc2c2nc(C)sc21 | > 43.6 |
| CCC(C)n1c(C)cc(C(N)=O)c1C (stereo unspecified) | 26.8 (≈ 138 µM) |
| CN=C1S/C(=C/c2cn(CC(=O)OC)c3ccccc23)C(=O)N1C | 4.1 (≈ 11.9 µM) |
| C=C(C)CN1C(=O)C2(OCCO2)c2cc(Br)ccc21 | 41.1 (≈ 127 µM) |
| Cc1ccc(N2CC(C(=O)Nc3ccc4c(c3)OCO4)CC2=O)cc1C (stereo unspecified) | 1.8 (≈ 5.11 µM) |
| Cc1csc(SCC(=O)NC(C)c2ccccc2)n1 (stereo unspecified) | > 43.9 |
| Cc1noc(C)c1C(=O)Nc1cc(Cl)ccc1N1CCOCC1 | 13.5 (≈ 40.2 µM) |
| COC(=O)Nc1cc(C(=O)c2ccc(Cl)cc2Cl)c[nH]1 | 43.6 (≈ 139 µM) |
| COc1ccc(C/C(N)=N/OC(=O)c2cccs2)cc1 | 7.5 (≈ 25.8 µM) |
| COc1cc2c(C#N)c(N3CCCCC3)nc(N)c2c(N)n1 | 39.8 (≈ 133 µM) |
| Cc1ccc(-c2onc3ccc(C4OCCO4)cc23)cc1 | 1 (≈ 3.55 µM) |
| CCOc1ccc(N/C=C/C(=O)c2ccc(OC)c(OC)c2)cc1 | 2.2 (≈ 6.72 µM) |
| CCC(C)c1ccccc1NC(=O)COC(=O)C1=NN(c2ccccc2)C(=O)CC1 (stereo unspecified) | > 61.1 |
| COc1ccccc1Nc1nc(C)cc(C)n1 | 22.1 (≈ 96.4 µM) |
| S=C(NCc1ccco1)Nc1ccc(Oc2ccc(Cl)cc2)cc1 | < 0.4 |
| COc1ccccc1/C=C(\C)C(=O)c1c(C)cc(C)[nH]c1=O | > 44.6 |
| CCOC(=O)c1c(C=O)c2ccccc2n1Cc1ccccc1 | < 0.7 |
| O=C(Cn1c(=O)n(CC2CS2)c2ccccc21)N1CCCCCC1 (stereo unspecified) | 44.3 (≈ 128 µM) |
| CCNC(=S)Nc1ccc2c(c1)oc1ccccc12 | 1.7 (≈ 6.29 µM) |
| CCc1sc(C(=O)Nc2ccc3nc(C)sc3c2)cc1C | 1.6 (≈ 5.06 µM) |
| O=C(Nc1cccc(Cl)c1)Nc1cnccn1 | 1.3 (≈ 5.23 µM) |

Results, then the compound that gave them:

| solubility kinetic [µg/mL] | SMILES |
| --- | --- |
| > 51.8 | O=S(=O)(NCCc1csc(-c2ccccc2)n1)c1cccnc1 |
| < 0.3 | CSc1nc2ccccc2c(=O)n1Cc1ccc(F)cc1 |
| > 47.9 | O=C1NC(Cc2c[nH]c3ccccc23)C(=O)N1Cc1ccccc1 (stereo unspecified) |
| 10 (≈ 22.4 µM) | Cc1ccc(S(=O)(=O)N(C)C)cc1NC(=O)c1cc(-c2ccncc2)nc2ccccc12 |
| > 52 | COc1ccc(C(=O)NCC(=O)OCC(=O)NCc2ccco2)cc1 |
| > 58.7 | Cc1ccc(N(Cc2ccccc2)C(=O)CN2C(=O)NC3(CCCC3)C2=O)cc1 |
| < 0.2 | CC(C)(C)c1cc(NC(=O)Nc2ccc(Cl)cc2Cl)no1 |
| > 36.5 | Clc1ccc(COn2ccnc2)cc1Cl |
| > 47 | COc1cc(/C=C/C(=O)NC(=O)c2ccccc2O)ccc1O |
| > 43.6 | O=C(CCc1nc2ccccc2s1)NC1CCOC1=O (stereo unspecified) |
| 32.3 (≈ 129 µM) | CN=C(C)/C(C(=O)OC)=C(/O)c1ccccc1F |
| > 60.1 | COc1ccc(C(=O)NCC(=O)OCC(=O)NC23CC4CC(CC(C4)C2)C3)cc1 |
| > 58.5 | O=C(OCC(=O)N1CCOCC1)c1ccccc1OCc1ccc(Cl)cc1 |
| 2.5 (≈ 7.45 µM) | COC(=O)c1cc(C(=O)Nc2ccc(Cl)cn2)cc([N+](=O)[O-])c1 |
| > 44.2 | O=C1CC(N2CCOCC2)C(=O)N1c1ccc(Cl)cc1 (stereo unspecified) |
| < 0.4 | Cc1ccc(C(=O)Nc2ccc(NC(=O)c3cccs3)cc2)c(C)c1 |
| > 49.3 | Cc1ccccc1C(=O)NC(=S)N(CCO)Cc1ccccc1 |
| 39.7 (≈ 144 µM) | O=C(NCC1COc2ccccc2O1)c1cccs1 (stereo unspecified) |
| 34.7 (≈ 145 µM) | CCOC(=O)Cc1cc(C)[nH]c1C(=O)OCC |
| > 50.5 | O=C1NCCN1CCN1C(=O)c2ccccc2NC1c1ccccc1 (stereo unspecified) |
| < 0.7 | CC(=O)c1ccc([N+](=O)[O-])c(CS(=O)(=O)c2ccccc2)c1 |
| 34.6 (≈ 116 µM) | COc1ccc(C(=O)CC(=O)C(=O)Nc2ccccc2)cc1 |

| solubility kinetic [µg/mL] | SMILES |
| --- | --- |
| 8.1 (≈ 16.2 µM) | Cc1ccc(N(C)S(=O)(=O)c2cccc(C(=O)OCC(=O)c3c(N)n(C)c(=O)n(C)c3=O)c2)cc1 |
| 41.9 (≈ 142 µM) | CN1CCN(C(=S)NC(=O)/C=C/c2cccs2)CC1 |
| > 36.3 | Cc1ccc(C(=O)O)cc1NCc1ccncc1 |
| 7.8 (≈ 20.4 µM) | CN(CC(=O)Nc1ccc(Cl)cc1F)C1=NS(=O)(=O)c2ccccc21 |
| > 47.5 | CN(C(=O)CNc1ccccc1Cl)C1CCS(=O)(=O)C1 (stereo unspecified) |
| > 49.7 | Cc1ccc(NC(=O)N2CCCC2C(=O)NCC2CCCO2)cc1 (stereo unspecified) |
| > 33.5 | O=C(CSc1ncccn1)N1CCCC1 |
| 3.4 (≈ 9.73 µM) | C=CCn1c(SCC(=O)N(C)C)nc2sc3c(c2c1=O)CCC3 |
| > 51.3 | O=C(COC(=O)Cc1c(Cl)cccc1Cl)NCc1ccco1 |
| > 46.6 | Cc1cccc(NC(=O)CCN2CC(C)CC(C)C2)c1.Cl (stereo unspecified) |
| > 40.6 | Cc1nnc(NC(=O)CN2CC(C)OC(C)C2)s1 (stereo unspecified) |
| > 42.6 | COC(=O)c1ccc(COc2ncnc3ccccc23)o1 |
| > 41.5 | CC(=O)c1c(C)[nH]c(C(=O)N2CC(C)CC(C)C2)c1C (stereo unspecified) |
| 7.7 (≈ 32.2 µM) | Cc1cc(C)cc(Nc2ncnc3nc[nH]c23)c1 |
| > 29.6 | N#Cc1ccc(Oc2ncccn2)cc1 |
| > 45.2 | O=C(NC1CC1)C1CCN(c2nc3ccccc3s2)CC1 |
| 9.4 (≈ 23.3 µM) | Cc1onc(-c2ccccc2)c1C(=O)NCC(=O)Nc1cc(Cl)ccc1Cl |
| 25.9 (≈ 82.6 µM) | CC(Oc1ccccc1)C(=O)NC1CCSc2ccccc21 (stereo unspecified) |
| 3 (≈ 9.54 µM) | COc1ccc(N2CCN(c3ccc([N+](=O)[O-])nc3)CC2)cc1 |
| 9 (≈ 34.7 µM) | CCc1ccc(C(C)NC(=O)c2cccs2)cc1 (stereo unspecified) |
| 22.1 (≈ 83.3 µM) | Cc1ccc(NCc2nc3ccccc3n2C)cc1C |
| < 0.4 | O=C(Nc1ccc(Oc2cccc(C(F)(F)F)c2)nc1)c1cccs1 |
